From patent publication US8653100B2 (AbbVie Inc., priority 2008, dated 2014)
Structures can show the parent of a compound that is named as a salt.

What follows are compounds tested against human GlyT1c (Homo sapiens (Human), UniProt P48067) (assay: [3H]-Glycine uptake into recombinant CHO cells expressing human GlyT1). Settings: hGlyT1c_5_CHO cells, 200 nM [3H]-glycine.
Chain of human GlyT1c (P48067 whole entry): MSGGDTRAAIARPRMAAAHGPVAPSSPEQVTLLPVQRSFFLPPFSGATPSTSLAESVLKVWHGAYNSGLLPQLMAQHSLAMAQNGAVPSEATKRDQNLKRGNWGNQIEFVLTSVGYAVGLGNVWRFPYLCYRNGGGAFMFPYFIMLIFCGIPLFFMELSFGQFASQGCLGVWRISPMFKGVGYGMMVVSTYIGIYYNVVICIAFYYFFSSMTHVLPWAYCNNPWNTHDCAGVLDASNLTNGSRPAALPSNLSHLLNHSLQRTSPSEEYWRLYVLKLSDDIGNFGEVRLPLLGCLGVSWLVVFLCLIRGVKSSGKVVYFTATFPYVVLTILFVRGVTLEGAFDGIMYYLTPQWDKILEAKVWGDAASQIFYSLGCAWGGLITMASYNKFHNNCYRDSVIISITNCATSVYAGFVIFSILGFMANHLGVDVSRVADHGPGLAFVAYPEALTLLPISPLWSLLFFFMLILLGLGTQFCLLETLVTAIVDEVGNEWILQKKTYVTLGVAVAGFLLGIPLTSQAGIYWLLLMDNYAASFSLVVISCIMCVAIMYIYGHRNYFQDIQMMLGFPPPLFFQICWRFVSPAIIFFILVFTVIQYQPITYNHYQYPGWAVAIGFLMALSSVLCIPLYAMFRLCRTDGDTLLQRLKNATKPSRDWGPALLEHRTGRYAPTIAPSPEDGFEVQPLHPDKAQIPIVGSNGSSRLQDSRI
Assay type: cell-based
Description: [^3H]-Glycine uptake into recombinant CHO cells expressing human GlyT1: Human GlyT1c expressing recombinant hGlyT1c—5_CHO cells were plated at 20,000 cells per well in 96 well Cytostar-T scintillation microplates (Amersham Biosciences) and cultured to sub-confluency for 24 h. […] The plates were placed in a Wallac Microbeta (PerkinElmer) and continuously counted by solid phase scintillation spectrometry during up to 3 hours. […] IC50 calculations were made by four-parametric logistic nonlinear regression analysis (GraphPad Prism) using determinations within the range of linear increase of [^3H]-glycine incorporation between 60 and 120 min.
CCCNc1ccc(S(=O)(=O)NCCOc2ccc3c(c2)C(C2(c4ccc(Cl)cc4)CCC2)NCC3)cn1 (stereo not shown) [Example 59, N-(2-(1-(1-(4-Chlorophenyl)cyclobutyl)-1,2,3,4-tetrahydroisoquinolin-7-yloxy)ethyl)-6-(propylamino)pyridine-3-sulfonamide hydrochloride] showed an IC50 of at most 10000 nM.
CCCS(=O)(=O)NCCOc1ccc2c(c1)C(C(c1ccc(Cl)cc1)C(C)C)NCC2 (stereo not shown) [Example 60, dihydrochloride] was tested, and the IC50 was at most 10000 nM.
O=S(=O)(NCCOc1ccc2c(c1)C(C1(c3ccc(Cl)cc3)CCC1)NCC2)C1CCCNC1 (stereo not shown) [Example 61, N-(2-(1-(1-(4-Chlorophenyl)cyclobutyl)-1,2,3,4-tetrahydroisoquinolin-7-yloxy)ethyl)piperidine-3-sulfonamide dihydrochloride] showed an IC50 of at most 100 nM.
Work on O=S(=O)(NCCOc1ccc2c(c1)C(C1(c3ccc(F)cc3)CCC1)NCC2)c1cccnc1 (stereo not shown) [Example 66, N-[2-({1-[1-(4-Fluorophenyl)cyclobutyl]-1,2,3,4-tetrahydroisoquinolin-7-yl}oxy)ethyl]pyridine-3-sulfonamide hydrochloride] yielded an IC50 of at most 100 nM.
CCCS(=O)(=O)NCCOc1ccc2c(c1)C(C1(c3ccc(Cl)cc3)CCC1)NCC2(C)C (stereo not shown) [Example 67, N-[2-({1-[1-(4-Chlorophenyl)cyclobutyl]-4,4-dimethyl-1,2,3,4-tetrahydroisoquinolin-7-yl}oxy)ethyl]propane-1-sulfonamide hydrochloride] was tested, and the IC50 was at most 100 nM.
For CCCS(=O)(=O)NCCOc1ccc2c(c1)CCNC2C1(c2ccc(Cl)cc2)CCC1 (stereo not shown) [Example 68, N-[2-({1-[1-(4-Chlorophenyl)cyclobutyl]-1,2,3,4-tetrahydroisoquinolin-6-yl}oxy)ethyl]propane-1-sulfonamide hydrochloride], the IC50 was at most 10000 nM.
In the case of CCN(CC)S(=O)(=O)NCCOc1ccc2c(c1)C(C1(c3ccc(Cl)cc3)CCC1)NCC2(C)C (stereo not shown) [Example 69, N′-[2-({1-[1-(4-Chlorophenyl)cyclobutyl]-4,4-dimethyl-1,2,3,4-tetrahydroisoquinolin-7-yl}oxy)ethyl]-N,N-diethylsulfuric diamide hydrochloride], the IC50 is reported as at most 1000 nM.
CCCS(=O)(=O)NCCOc1ccc2c(c1)C(C1(c3ccc(F)cc3)CCC1)N(C(=O)C(F)(F)F)CC2 (stereo not shown) [Example 70, N-[2-({1-[1-(4-Fluorophenyl)cyclobutyl]-2-(trifluoroacetyl)-1,1,3,4-tetrahydroisoquinolin-7-yl}oxy)ethyl]propane-1-sulfonamide] was tested, and the IC50 was at most 100000 nM.
In the case of CCCS(=O)(=O)NCCOc1ccc2c(c1)C(C1(c3ccc(F)cc3)CCC1)N(CC(F)(F)F)CC2 (stereo not shown) [Example 71, N-[2-({1-[1-(4-Fluorophenyl)cyclobutyl]-2-(2,2,2-trifluoroethyl)-1,2,3,4-tetrahydroisoquinolin-7-yl}oxy)ethyl]propane-1-sulfonamide hydrochloride], the IC50 is reported as at most 1000 nM.
CCCS(=O)(=O)NCCOc1ccc2c(c1)C(C1(c3ccc(F)cc3)CCC1)N(N=O)CC2 (stereo not shown) [Example 74, N-[2-({1-[1-(4-Fluorophenyl)cyclobutyl]-2-nitroso-1,2,3,4-tetrahydroisoquinolin-7-yl}oxy)ethyl]propane-1-sulfonamide] showed an IC50 of at most 10000 nM.
Compound CCCS(=O)(=O)NCCOc1ccc2c(c1)C(C1(c3ccc(F)cc3)CCC1)N(N)CC2 (stereo not shown) [Example 75, N-[2-({2-Amino-1-[1-(4-fluorophenyl)cyclobutyl]-1,2,3,4-tetrahydroisoquinolin-7-yl}oxy)ethyl]propane-1-sulfonamide] has an IC50 of at most 1000 nM.
CCCS(=O)(=O)NCCOc1ccc2c(c1)C(C1(c3ccc(Cl)cc3OC)CCC1)NCC2 (stereo not shown) [Example 76, N-[2-({1-[1-(4-Chloro-2-methoxyphenyl)cyclobutyl]-1,2,3,4-tetrahydroisoquinolin-7-yl}oxy)ethyl]propane-1-sulfonamide hydrochloride] gave an IC50 of at most 100 nM.
Work on CCCS(=O)(=O)NCCOc1ccc2c(c1)C(C1(c3cccc(Cl)c3)CCC1)N(CC#N)CC2 (stereo not shown) [Example 77, N-[2-({1-[1-(3-Chlorophenyl)cyclobutyl]-2-(cyanomethyl)-1,2,3,4-tetrahydroisoquinolin-7-yl}oxy)ethyl]propane-1-sulfonamide] yielded an IC50 of at most 1000 nM.
CCCS(=O)(=O)NCCOc1ccc2c(c1)C(C1(c3cccc(Cl)c3)CCC1)N(CCN)CC2 (stereo not shown) [Example 78, N-[2-({2-(2-Aminoethyl)-1-[1-(3-chlorophenyl)cyclobutyl]-1,2,3,4-tetrahydroisoquinolin-7-yl}oxy)ethyl]propane-1-sulfonamide bis(trifluoroacetate)] gave an IC50 of at most 10000 nM.
With CCCS(=O)(=O)NCCOc1ccc2c(c1)C(C1(c3ccc(F)cc3)CCC1)N(c1ncc[nH]1)CC2 (stereo not shown) [Example 79, N-[2-({1-[1-(4-Fluorophenyl)cyclobutyl]-2-(1H-imidazol-2-yl)-1,2,3,4-tetrahydroisoquinolin-7-yl}oxy)ethyl]propane-1-sulfonamide] the IC50 was at most 1000 nM.
CCCS(=O)(=O)NCCOc1ccc2c(c1)C(C1(c3ccc(Cl)cc3)CCC1)N(CC#N)CC2 (stereo not shown) [Example 80, N-[2-({1-[1-(4-cChlorophenyl)cyclobutyl]-2-(cyanomethyl)-1,2,3,4-tetrahydroisoquinolin-7-yl}oxy)ethyl]propane-1-sulfonamide hydrochloride] gave an IC50 of at most 100 nM.
For O=S(=O)(CCCOc1ccc2c(c1)C(C1(c3ccc(Cl)cc3)CCC1)NCC2)N1CCOCC1 (stereo not shown) [Example 81, 1-[1-(4-Chlorophenyl)cyclobutyl]-7-[3-(morpholin-4-ylsulfonyl)propoxy]-1,2,3,4-tetrahydroisoquinoline hydrochloride], the IC50 was at most 10000 nM.
With CCCNS(=O)(=O)CCCOc1ccc2c(c1)C(C1(c3ccc(Cl)cc3)CCC1)NCC2 (stereo not shown) [Example 82, 3-({1-[1-(4-Chlorophenyl)cyclobutyl]-1,2,3,4-tetrahydroisoquinolin-7-yl}oxy)-N-propylpropane-1-sulfonamide hydrochloride] the IC50 was at most 1000 nM.
O=S(=O)(NCCOc1ccc2c(c1)C(C1(c3ccc(Cl)cc3)CC1)NCC2)c1cccnc1 (stereo not shown) [Example 85, N-[2-({1-[1-(4-Chlorophenyl)cyclopropyl]-1,2,3,4-tetrahydroisoquinolin-7-yl}oxy)ethyl]pyridine-3-sulfonamide] showed an IC50 of at most 100 nM.
In the case of Cn1cc(S(=O)(=O)NCCOc2ccc3c(c2)C(C2(c4ccc(Cl)cc4)CC2)NCC3)cn1 (stereo not shown) [Example 86, N-[2-({1-[1-(4-Chlorophenyl)cyclopropyl]-1,2,3,4-tetrahydroisoquinolin-7-yl}oxy)ethyl]-1-methyl-1H-pyrazole-4-sulfonamide], the IC50 is reported as at most 100 nM.
Work on CCCS(=O)(=O)NCCOc1ccc2c(c1)C(C1(c3ccc(Cl)cc3)CC1)NCC2 (stereo not shown) [Example 87, N-[2-({1-[1-(4-Chlorophenyl)cyclopropyl]-1,2,3,4-tetrahydroisoquinolin-7-yl}oxy)ethyl]propane-1-sulfonamide hydrochloride] yielded an IC50 of at most 100 nM.
Work on NCCS(=O)(=O)NCCOc1ccc2c(c1)C(C1(c3ccc(Cl)cc3)CCC1)NCC2 (stereo not shown) [Example 154, 2-Amino-N-[2-({1-[1-(4-chlorophenyl)cyclobutyl]-1,2,3,4-tetrahydroisoquinolin-7-yl}oxy)ethyl]ethanesulfonamide] yielded an IC50 of at most 1000 nM.
